Experimental data: paper PMC5340040 (BMC Biochemistry, 2017)
No end group written: not given here.

What was measured:
G-actin [1] = assay: Inhibition of TGase cross-linking to G-actin by NaCl, DNase1 and cofilin; assay type: binding, rabbit; conditions: 6 μM Fl-histatin, 4 μM G-actin; for effect of NaCl on cross-linking to G-actin: 0.3 mg/ml TGase, 1 min
Method: Here we studied the effect of these agents on the cross-link formation between G-actin and histatins. In these experiments NaCl, histatins, TGase were added simultaneously to G-actin and incubated for 1 min only to avoid significant actin polymerization.
Samples were treated with TGase for 1 min. Upper panel, evaluation of SDS-PAGE. Lower panel, representative SDS-PAGE visualized by Coomassie blue. b Inhibition of cross-linking by DNase1 and cofilin. Samples were treated with TGase for 5 min

TG-G-actin [2] = assay: Cross-linking to TGase pretreated G-actin (TG-G-actin) vs G-actin; cross-linking site; assay type: binding, rabbit; conditions: 4.5 μM Fl-histatin; for cross-linked product with TGase pretreated vs untreated G-actin: 4 μM G-actin or TG-G-actin, 0.3 mg/ml TGase, 30 min, 22 °C; for cross-linking site in the D-loop of G-actin: TG-G-actin (Gln41 blocked)
Method: Preparation of TG-G-actin: 108 μM CaATP-G-actin was incubated with 4 mg/ml TGase at 4 °C for 24 h. After cross-linking samples were run on SDS-PAGE and evaluated by densitometry. Upper panel quantitative evaluation of SDS-PAGE by densitometry. Lower panel representative SDS-PAGE visualized by Coomassie blue

[3] = tested on: subtilisin / trypsin digested G-actin; assay: Cross-linking to subtilisin or trypsin fragments of G-actin; assay type: binding, rabbit; conditions: 4 μM G-actin, 6 μM Fl-histatin, 0.3 mg/ml TGase, 30 min, 22 °C; for cross-linking to subtilisin fragments (Asp1-Met47 N-terminal, Gly48-Phe375 C-terminal): 1.5 μg/ml subtilisin; for cross-linking to Tyr69-Arg372 C-terminal tryptic fragment: 20 μg/ml trypsin
Method: Trypsin and subtilisin digestions were stopped by 40 μg/ml STI and 1 mM PMSF, respectively. Samples were run on SDS-PAGE. Left, lanes visualized by Coomassie blue; right, lanes visualized by fluorescence, marked by (*). Legend: (a) actin; (b) trypsin digested actin; (c) trypsin digested actin cross-linked with Fl-histatin-3 or Fl-histatin-5; (d) subtilisin digested actin; (e) subtilisin digested actin cross-linked with Fl-histatin-3 or Fl-histatin-5; nf), actin cross-linked with Fl-histatin-3 or Fl-histatin-5. a Fl-histatin-3-actin fragments cross-linked bands; b Fl-histatin-5-actin fragments cross-linked bands. Lane M, molecular weight marker

CaATP-G-actin [4] = conditions: 22 °C
Method: The reaction was stopped by addition of 1 mM cysteamine. Samples were subjected to 12% SDS-PAGE, visualized by Coomassie blue or fluorescence and evaluated by densitometry.
Samples were treated with TGase at 22 °C for 30 and run on SDS-PAGE and evaluated by densitometry as described in Methods.
Cross-linking with 0.3 mg/ml TGase for 30 min at 22 °C. Upper panel, quantitative evaluation of SDS-PAGE by densitometry.

actin = conditions: cited from earlier work
From the text: Actin is a negatively charged structural protein and the most abundant protein in the eukaryotic cells. Actin, released from dead cells, is also present in the saliva. Actin has important roles in cytoskeleton formation, cell division, motility, adhesion, signaling and more. Actin exists in either monomer globular (G) or polymer filament (F) form, which are interconvertible into each other.

MgF-actin [5] = target: T1, MgF-actin (Oryctolagus cuniculus, UniProt P68135); assay: Extent of F-actin bundling by low speed centrifugation; assay type: biochemical, rabbit
T1 construct: MgF-actin was polymerized from CaATP-G-actin by 30 min incubation with 2 mM MgCl2 at 22 °C; tissue Pel-Freez Biologicals (Rogers, AR) (acetone powder); host or cells: rabbit back and leg skeletal muscle
Method: CaATP-G-actin was stored in a buffer containing 5 mM TrisHCl, 0.2 mM CaCl2, 0.2 mM ATP, 0.5 mM β-mercaptoethanol, pH 8.0 (CaATP-G-buffer). MgF-actin was polymerized from CaATP-G-actin by 30 min incubation with 2 mM MgCl2 at 22 °C. MgF-actin was diluted for further treatments in MgF-buffer containing 5 mM 3-(N-morpholino) propanesulfonic acid (MOPS), 2 mM MgCl2, 0.2 mM ATP and 0.5 mM DTT, pH 7.4. The concentration of G- and F-actin was determined using the extinction coefficient E^1% 290 = 11.5 cm-^1. (The optical density of actin was measured in the presence of 0.5 M NaOH, which shifts the maximum of absorbance from 280 to 290 nm).
Extent of actin polymerization and bundling was measured by high speed centrifugation at 129,151 x g for 2 h and by low speed centrifugation at 20,800 x g for 8 min, respectively. The centrifugations were carried out at 4 °C. The supernatants were separated by 12% sodium dodecyl sulfate polyacrylamide electrophoresis (SDS−PAGE) and analyzed by densitometry using the TINA 2.07d software.
Bundling was carried out at low ionic strength. a and b bundling kinetics of 4 μM F-actin was followed by light scattering change as described in Methods. […] Upper panels quantitative evaluation of bundling, lower panels, representative SDS-PAGE of the supernatants
Effect of pH on bundling. […]

MgF-actin [6] = target: T1, MgF-actin; assay: Transglutaminase cross-linking to F-actin; assay type: binding, rabbit; conditions: 22 °C; for effect of phalloidin on extent of F-actin cross-linking: 4 μM F-actin, 8 μM Fl-peptide, 8 μM phalloidin, 0.3 mg/ml TGase, 30 min
From the text: Lower panels are representative SDS-PAGE-s. […] Lower panel, SDS-PAGE visualized by fluorescence
Upper panel, quantitative evaluation of SDS-PAGE by densitometry. Lower panel Coomassie blue stained representative SDS-PAGE

[7] = tested on: CaATP-G-actin (skeletal muscle); assay: Actin polymerization, pyrene-actin fluorescence kinetics; assay type: biochemical, rabbit; conditions: 4 μM CaATP-G-actin; 8 μM histatin-3, 20 μM histatin-5, 7 μM LL-37; pH 6.5, 7.4 and 8.2; 22 °C
Method: Labeling of Mg-F-actin at Cys-374 with pyrene maleimide was carried out according to Kouyama and Mihashi with some modifications. CaATP-G-actin was filtered through a PD-10 column (GE Healthcare) equilibrated with β-mercaptoethanol-free CaATP-G-buffer. After filtration, G-actin (1 mg/ml) was polymerized by 2 mM MgCl2 and 100 mM KCl at 22 °C for 30 min, and reacted with pyrene maleimide (16 μg/ml) on ice, for 1 h. The reaction was terminated with 1 mM DTT. Labeled F-actin was centrifuged at 129,151 x g for 2 h; the pellet was resuspended in Ca-ATP-G-buffer and depolymerized by dialyzing in this buffer for 36 h at 4 °C with twice changing the buffer. Finally, actin was centrifuged again at 129,151 x g for 2 h. […] The concentration of modified actin was determined by the procedure of Bradford using unmodified actin as a standard. The extent of labeling was determined by using pyrene extinction coefficient E344 nm = 22,000 cm^−1M^−1, was ~100%.
Actin polymerization was followed by fluorescence increase (at 365 nm excitation and 386 nm emission wavelengths) of pyrene-labeled G-actin [17], which was added to unlabeled G-actin in 10–15%. The kinetics of bundling of MgF−actin was monitored by increase in light scattering, with both excitation and emission wavelengths adjusted to 450 nm. All fluorescence and light scattering measurements were carried out at 22 °C. […]

[8] = tested on: CaATP-G-actin (skeletal muscle); conditions: ref [9]; cited from earlier work
Method: The pK of histidine is around pH 6.5 depending on the environment of the residue in the protein structure. This means that its charge changes with pH in the neutral pH region. Histidine is positively charged at slightly acidic pH and neutral above pH 7.0. Since actin polymerization is dependent on the number of positive charges of the polymerizing agent, the effect of pH 6.5, 7.4 and 8.2 on the polymerization of G-actin by histatins was measured (Fig. 1d).

F-actin bundles = conditions: ref [9]; cited from earlier work
From the text: Both DNase1 and cofilin are actin binding proteins. DNase1 depolymerizes F-actin filament by binding to the protomer at the filaments ends and forming a tight complex with the protomer by attachment to its DNase1 binding loop (D-loop). […] Cofilin disassembles actin bundles by severing the filaments through its effect on the structure of actin protomers [[19] ...

CaATP-G-actin [9] = conditions: ref [6], cited from earlier work
From the text: Transglutaminase (TGase) catalyzes the formation of isopeptide bonds, which cross-links proximal glutamine and lysine residues in proteins. The TGase reaction produces both intramolecular cross-links in proteins and intermolecular cross-links between proteins and peptides.

G-actin [10] = conditions: ref [6]; cited from earlier work
TG-G-actin [11] = conditions: ref [6]; cited from earlier work
From the text: TGase catalyzes covalent cross-linking of glutamine and lysine residues in proteins. Since in the histatin-G-actin cross-linking reaction only actin contains glutamine residues, it follows that actin should be the glutamine donor in this case. […] Gln41 seems to be the preferred candidate for this role sinc ...

[12] = 4 μM G- or F-actin, 8 μM histatin-3 or 6 μM LL-37, 0.4 mg/ml TGase

## Fl-histatin-5: FAM labeled histatin-5
G-actin [1]
  effect of NaCl on cross-linking to G-actin: NaCl inhibited the cross-linking
G-actin [1]; cofilin, TGase 5 min
  inhibitory effect of cofilin on cross-linking, comparison of peptides: less Fl-histatin-5 than with Fl-histatin-3
TG-G-actin [2]
  cross-linked product with TGase pretreated vs untreated G-actin: the same amount of cross-linked product formed
  cross-linking site in the D-loop of G-actin: does not cross-link to Gln41 of G-actin
[3]
  cross-linking to subtilisin fragments (Asp1-Met47 N-terminal, Gly48-Phe375 C-terminal): cross-linked only to the C- but not to the N-terminal G-actin fragment
  cross-linking to Tyr69-Arg372 C-terminal tryptic fragment: can be also cross-linked
CaATP-G-actin [4]; 4 μM CaATP-G-actin, 4–8 μM Fl-histatin, 0.3 mg/ml TGase
  quantity of cross-linked product with G-actin, comparison: consistently greater than that of Fl-histatin-3
CaATP-G-actin [4]; 4 μM G- and F-actin, 6 μM Fl-histatin, 0.3 mg/ml TGase
  extent of cross-linking to both G- and F-actin, comparison: larger than that of Fl-histatin-3

## lysozyme: positively charged protein that interacts with actin
actin; ref [8]
  polymerization and bundling of actin, lysozyme: polymerize G-actin to F actin and bundle F-actin into actin bundles

## CC(C)C[C@H](NC(=O)[C@H](Cc1ccc(O)cc1)NC(=O)[C@H](CC(N)=O)NC(=O)[C@H](CO)NC(=O)[C@H](CCCNC(=N)N)NC(=O)[C@H](Cc1ccc(O)cc1)NC(=O)CNC(=O)[C@H](CCCNC(=N)N)NC(=O)[C@H](Cc1c[nH]cn1)NC(=O)[C@H](CO)NC(=O)[C@H](Cc1c[nH]cn1)NC(=O)[C@H](Cc1c[nH]cn1)NC(=O)[C@H](CCCCN)NC(=O)[C@H](CCC(=O)O)NC(=O)[C@H](Cc1c[nH]cn1)NC(=O)[C@H](Cc1ccccc1)NC(=O)[C@H](CCCCN)NC(=O)[C@H](CCCNC(=N)N)NC(=O)[C@H](CCCCN)NC(=O)[C@H](Cc1ccc(O)cc1)NC(=O)CNC(=O)[C@H](Cc1c[nH]cn1)NC(=O)[C@H](Cc1c[nH]cn1)NC(=O)[C@H](CCCNC(=N)N)NC(=O)[C@H](CCCCN)NC(=O)[C@H](C)NC(=O)[C@H](Cc1c[nH]cn1)NC(=O)[C@H](CO)NC(=O)[C@@H](N)CC(=O)O)C(=O)N[C@@H](Cc1ccc(O)cc1)C(=O)N[C@@H](CC(=O)O)C(=O)N[C@@H](CC(N)=O)C(=O)O [histatin-3]
MgF-actin [5]
  EC50: 5 µM

## Fl-LL-37: tetramethylrhodamine labeled LL-37
MgF-actin [6]
  effect of phalloidin on extent of F-actin cross-linking: reduces greatly

## Fl-histatin-3: tetramethylrhodamine labeled histatin-3 (DSHAKRHHGYKRKFHEKHHSHRGYRSNYLYDN; also: tetramethylrhodamine label, position not given here)
MgF-actin [6]
  effect of phalloidin on extent of F-actin cross-linking: reduces greatly
G-actin [1]
  effect of NaCl on cross-linking to G-actin: NaCl inhibited the cross-linking
TG-G-actin [2]
  cross-linked product with TGase pretreated vs untreated G-actin: slightly less actin Fl-histatin-3 cross-linked products formed with TGase pretreated than with untreated G-actin
  cross-linking site in the D-loop of G-actin: Gln-49 is the main glutamine donor in the D-loop of actin
[3]
  cross-linking to subtilisin fragments (Asp1-Met47 N-terminal, Gly48-Phe375 C-terminal): both fragments can be cross-linked
  cross-linking to Tyr69-Arg372 C-terminal tryptic fragment: can be also cross-linked

## LLGDFFRKSKEKIGKEFKRIVQRIKDFLRNLVPRTES [LL-37]
[7]
  effect of pH on kinetics of actin polymerization: much less pH-dependent than the polymerization by histatins
MgF-actin [5]; 8 μM MgF-actin, 5 μM histatin-3, 12 μM histatin-5, 5 μM LL-37, pH 6.5, 7.3 and 8.2 (Fig. 2d), 3–16 μM histatins at pH 6.5 and 7.4 (Fig. S1)
  effect of pH on extent of F-actin bundling: contrary to the bundling by LL-37
MgF-actin [6]; [12]
  extent of cross-link formation with F-actin vs G-actin: significantly less than with G-actin
CaATP-G-actin [4]; [12]
  cross-linking to G- and F-actin by TGase: cross-linked to both G- and F-actin like LL-37
[8]
  concentration at which G-actin is polymerized at neutral pH: at about the same concentration as histatin-3
F-actin bundles
  disassembly of polycation induced actin bundles by DNase1 and cofilin: DNase1 and cofilin disassemble LL-37 and lysozyme -induced actin bundles
CaATP-G-actin [9]; [25]
  cross-linking of LL-37 to actin by TGase: can be cross-linked to actin by TGase
CaATP-G-actin [9]
  binding site on actin: binds preferentially to the D-loop of actin
G-actin [10]
  effect of 200 mM NaCl on extent of cross-linking by LL-37: did not affect the extent of cross-linking
TG-G-actin [11]
  cross-linking site of LL-37 on actin: preferentially cross-linked to Gln-49
actin; ref [9]
  polymerization and bundling of actin, LL-37: polymerize G-actin to F actin and bundle F-actin into actin bundles
